Test [1] has as its system EL4 cells. Nature of the test: Lectin staining for fucose expression inhibition, EL4 cells. As to conditions: Mus musculus, 72 h, 3 days, 0-512 μM compound, flow cytometry. It counts as cell-based. As for the experimental part:
THP-1 cells (TIB-202, ATCC) and Jurkat cells (TIB-152, ATCC) were cultured in RPMI-1640 medium containing 2 mM Glutamine and 25 mM HEPES (Gibco™, Life Technologies), supplemented with 10% v/v heat-inactivated fetal bovine serum (FBS) (Gibco™, Life Technologies) and 1× antibiotic-antimycotic solution (100 units/mL of penicillin, 100 μg/mL of streptomycin, and 0.25 μg/mL Fungizone) (Gibco™, Life Technologies) and passaged every 3-4 day by seeding a fraction of 0.5-2 min cells of the culture per 10 ml medium. EL-4 cells (TIB-39, ATCC) were cultured in DMEM medium (Gibco™, Life Technologies), supplemented with 10% v/v heat-inactivated fetal bovine serum (FBS) (Gibco™, Life Technologies), 1× antibiotic-antimycotic solution (100 units/mL of penicillin, 100 μg/mL of streptomycin, and 0.25 μg/mL Fungizone) (Gibco™, Life Technologies) and 2 mM Glutamine (Gibco™, Life Technologies) and passaged every 2-4 days by seeding a fraction of 0.5-1 min cells of the culture per 10 ml medium. For passaging a T75 flask (Corning), medium was removed and the monolayer was washed with 10 ml PBS pH 7.2 without CaCl2) and MgCl2 (Gibco™, Life Technologies) before adding 3.5 ml 0.05% trypsin/EDTA solution (Gibco™ 5 Life Technologies) in PBS. Cells were incubated at rt for 30-45 s after which the trypsin/EDTA-solution was removed. Cells were incubated for an additional 2 min at 37° C., 5.0% CO2 and resuspended in cell culture medium. Cells were then seeded at ˜40.000 cells/cm^2 in new culture flasks. All cells were cultured at 37° C., 5% CO2 in a humidified incubator.
Protocol below was repeated until n>=3 for each compounds using cells at different passage numbers. Cells were cultured in medium containing different concentrations of unnatural sugar derivatives on either 24-wells plates (adherent cell lines; 80,000 cells per well) (Corning) or 96-wells plates (suspension cell lines; 13,000-20,000 cells per well) (Thermo Scientific). DMSO, at same dilution as the unnatural sugar derivative stock solutions, was used as a positive control for lectin staining; P-Fuc2F was used for all concentrations as negative control. Cells were incubated for three days at 37° C. and 5% CO2 in a humidified incubator. Cells were harvested and washed with 100 μl 1×CF-blocking buffer (Vector Laboratories Inc.) containing 1 mM CaCl2) and 1 mM MgCl2. The cells were then resuspended in 50 μl 0.5 μg/ml of 0.5 ng/ml biotinylated lectin in 1× carbo-free blocking buffer and incubated at 4-8° C. for 45-60 min. Cells were washed with 3×100 μl PBA (PBS containing 1% v/v FBS and 0.1% w/w sodium azide), incubated with 40 μl 1 μg/ml Streptavidin-phycoerythrin conjugate (Invitrogen, eBioscience) in PBA for 10-15 min at 4-8° C. Cells were then washed again with 3×100 μl PBA, resuspended in PBA and fluorescence was measured with a flow cytometer (Beckman & Dickinson FACS-Calibur). Each replicate for each condition with >10,000 gated events. Data was processed using FlowJo (FlowJo LLC). Percentage of lectin binding was obtained by normalizing the MFI values to the MFI values of the respective DMSO control.
Three cell lines (THP-1, Jurkat, EL4) were cultured for 3 days with 0-512 μM compound. The cells were stained with two fucose specific lectins (AAL & AOL) and analysed by flow cytometry, presented as mean percentage lectin binding normalized to control (n=3).
In general terms: Flow cytometry measures light scatter and fluorescence of single cells or particles in a stream.

For test [2], the system named is THP-1 cells. Kind of test: Onset and recovery of inhibition. It counts as cell-based. As to conditions: 100 μM, AAL lectin; for inhibition at 100 µM: Homo sapiens, 72 h, read-out: inhibition of fucosylation after 3 days. The protocol:
Cells were cultured in medium containing different concentrations of unnatural sugar derivatives on 96-wells plates (suspension cell lines; 13,000-20,000 cells per well) (Thermo Scientific). DMSO, at same dilution as the unnatural sugar derivative stock solutions, was used as a positive control for lectin staining; P-Fuc2F was used for all concentrations as negative control. Cells were incubated for eight days at 37° C. and 5% CO2 in a humidified incubator. Medium was changed after three and six days of incubation with cell culture medium without unnatural sugar derivatives. Every day cells were harvested and washed with 100 μl 1× CF-blocking buffer (Vector Laboratories Inc.) containing 1 mM CaCl2) and 1 mM MgCl2. The cells were then resuspended in 50 μl 0.5 μg/ml of either 0.5 ng/ml biotinylated AAL, AOL, SNA, MAL-II, WGA, LCA, PSA, PNA, PHA-L or GSL-1 lectin in 1× carbo-free blocking buffer or with 50 μl of non-supplemented 1× carbo-free blocking buffer and incubated at 4-8° C. for 45-60 min. Cells were washed with 3×100 μl PBA (PBS containing 1% v/v FBS and 0.1% w/w sodium azide), incubated with 40 μl 1 μg/ml Streptavidin-phycoerythrin conjugate (Invitrogen, eBioscience) in PBA for 10-15 min at 4-8° C. Cells were then washed again with 3×100 μl PBA, resuspended in PBA and fluorescence was measured with a flow cytometer (Beckman & Dickinson FACS-Calibur). Each replicate for each condition with >10,000 gated events. Data was processed using FlowJo (FlowJo LLC). Percentage of lectin binding was obtained by normalizing the MFI values to the MFI values of the respective DMSO control.
The onset of inhibition and duration for recovery was evaluated on THP-1 cells with 100 and 10 μM compound using the AAL lectin (FIG. 5). At 100 μM concentration compounds 9 and 10 inhibit fucosylation after 1 day and to over 50% after 3 days. Fucosylation was fully recovered to normal 5 levels on day 6. […] Similar results were obtained using the AOL lectin.

The mark [3] stands for this setting: AAL lectin, n=3, read-out: EC50 for fucose expression inhibition, EL4 AAL.
Where [4] appears, read: AOL lectin, n=3, read-out: EC50 for fucose expression inhibition, EL4 AOL.

Like-named read-outs stand apart in the source and are kept apart here. Bounds are passed on as bounds.

The EC50 is the midpoint of the concentration-response curve. In general, inhibition refers to the percentage by which the read-out fell short of the control. On to `CC(=O)OC1C(OC(C)=O)[C@H](OC(C)=O)C(C(F)F)O[C@@H]1OP(=O)(OCCSC(C)=O)OCCSC(C)=O` (stereo partly drawn) [P-D-Rha6F2-1P (9), Di-(S-acetyl-2-thioethyl)-(2,3,4-tri-O-acetyl-6,6-difluoro-α-D-rhamnopyranoside) phosphate], for which the concentration for a half-maximal effect (EC50) in test [1] (setting [3]) turned out to be 14.2 µM; in test [1] (setting [4]), 38.2 µM. Also, the “onset of fucosylation inhibition” value in test [2] is 1 days. Moreover, the inhibition at 100 µM in test [2] was more than 50%.

In the case of `CC(=O)OC1C(OC(C)=O)[C@H](OC(C)=O)C(C(F)(F)F)O[C@@H]1OP(=O)(OCCSC(C)=O)OCCSC(C)=O` (stereo partly drawn) [P-D-Rha6F3-1P (10), Di-(S-acetyl-2-thioethyl)-(2,3,4-tri-O-acetyl-6,6,6-trifluoro-α-D-mannopyranoside) phosphate], the EC50 in test [1] (setting [3]) was more than 500 µM. Moreover, the EC50 in test [1] (setting [4]) was more than 500 µM. In addition, in test [2], the “onset of fucosylation inhibition” value is 1 days and the inhibition at 100 µM was more than 50%.

These data come from patent US12606585B2, “Fluorinated hexoses” (Stichting Radboud Universiteit, priority 2020, dated 2026).
